Measurements from patent publication US12275731B2, “Azaindole inhibitors of wild-type and mutant forms of LRRK2” (DANA-FARBER CANCER INSTITUTE, INC., priority 2018, dated 2025).

Experiments:
Experiment in all cases: KinomeScan profiling
Assay type in all cases: binding
[1] = target: ERK5 (Homo sapiens, UniProt Q13164); details: ERK5, 1 μM; read-out: % control
Summary of the method: (§1)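 First, compounds in DMSO are added at 1 μM to each of 468 kinase assays. Next, RLU signals are normalised between positive control (0%) and DMSO (100%). Finally, kinases under 35% are flagged active.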

[2] = target: ZAK (Homo sapiens, UniProt Q9NYL2); details: read-out: % control
ZAK, sequence (Q9NYL2 whole entry): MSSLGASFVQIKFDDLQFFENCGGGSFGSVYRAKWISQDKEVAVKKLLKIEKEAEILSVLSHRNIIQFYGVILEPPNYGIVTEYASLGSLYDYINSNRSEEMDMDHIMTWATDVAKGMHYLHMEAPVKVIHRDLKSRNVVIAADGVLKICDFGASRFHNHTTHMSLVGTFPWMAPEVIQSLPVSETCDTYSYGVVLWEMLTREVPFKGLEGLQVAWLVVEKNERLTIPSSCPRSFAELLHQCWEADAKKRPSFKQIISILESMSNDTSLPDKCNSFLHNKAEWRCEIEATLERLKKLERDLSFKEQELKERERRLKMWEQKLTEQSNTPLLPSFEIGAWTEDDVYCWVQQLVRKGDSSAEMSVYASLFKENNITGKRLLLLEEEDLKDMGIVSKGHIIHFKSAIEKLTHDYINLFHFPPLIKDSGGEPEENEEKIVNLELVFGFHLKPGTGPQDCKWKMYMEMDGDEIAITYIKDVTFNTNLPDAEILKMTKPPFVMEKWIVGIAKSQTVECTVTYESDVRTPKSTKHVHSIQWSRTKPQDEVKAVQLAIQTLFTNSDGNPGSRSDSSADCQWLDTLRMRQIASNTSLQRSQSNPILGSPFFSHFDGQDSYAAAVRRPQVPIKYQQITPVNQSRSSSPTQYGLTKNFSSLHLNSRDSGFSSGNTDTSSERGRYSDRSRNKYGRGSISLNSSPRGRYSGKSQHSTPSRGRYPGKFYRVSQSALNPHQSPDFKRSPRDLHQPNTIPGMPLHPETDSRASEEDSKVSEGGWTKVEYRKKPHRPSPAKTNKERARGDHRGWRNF
Summary of the method: as §1

[3] = target: PRKCQ (Homo sapiens, UniProt Q04759); details: read-out: % control
PRKCQ, sequence (Q04759 whole entry): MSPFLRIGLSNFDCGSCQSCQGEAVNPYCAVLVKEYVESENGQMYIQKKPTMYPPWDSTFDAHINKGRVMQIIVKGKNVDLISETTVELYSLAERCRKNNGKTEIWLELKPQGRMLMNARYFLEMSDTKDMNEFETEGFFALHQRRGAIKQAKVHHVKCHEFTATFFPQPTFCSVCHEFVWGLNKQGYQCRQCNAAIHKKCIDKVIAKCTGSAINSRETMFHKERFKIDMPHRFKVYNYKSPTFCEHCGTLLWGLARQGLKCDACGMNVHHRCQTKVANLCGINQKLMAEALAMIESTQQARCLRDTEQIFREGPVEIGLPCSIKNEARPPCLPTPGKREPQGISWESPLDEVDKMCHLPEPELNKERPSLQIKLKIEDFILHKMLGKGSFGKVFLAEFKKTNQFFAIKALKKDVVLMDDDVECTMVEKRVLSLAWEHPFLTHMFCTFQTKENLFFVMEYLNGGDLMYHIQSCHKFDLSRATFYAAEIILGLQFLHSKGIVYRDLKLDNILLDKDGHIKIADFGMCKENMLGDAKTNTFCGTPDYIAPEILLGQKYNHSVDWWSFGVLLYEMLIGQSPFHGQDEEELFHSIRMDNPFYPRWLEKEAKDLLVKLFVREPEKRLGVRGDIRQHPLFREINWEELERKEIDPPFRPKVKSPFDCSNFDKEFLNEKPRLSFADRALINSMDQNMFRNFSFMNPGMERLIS
Summary of the method: as §1

[4] = target: CAMKK2 (Homo sapiens, UniProt Q96RR4); details: CAMKK2, 1 μM; read-out: % control
CAMKK2, sequence (Q96RR4 whole entry): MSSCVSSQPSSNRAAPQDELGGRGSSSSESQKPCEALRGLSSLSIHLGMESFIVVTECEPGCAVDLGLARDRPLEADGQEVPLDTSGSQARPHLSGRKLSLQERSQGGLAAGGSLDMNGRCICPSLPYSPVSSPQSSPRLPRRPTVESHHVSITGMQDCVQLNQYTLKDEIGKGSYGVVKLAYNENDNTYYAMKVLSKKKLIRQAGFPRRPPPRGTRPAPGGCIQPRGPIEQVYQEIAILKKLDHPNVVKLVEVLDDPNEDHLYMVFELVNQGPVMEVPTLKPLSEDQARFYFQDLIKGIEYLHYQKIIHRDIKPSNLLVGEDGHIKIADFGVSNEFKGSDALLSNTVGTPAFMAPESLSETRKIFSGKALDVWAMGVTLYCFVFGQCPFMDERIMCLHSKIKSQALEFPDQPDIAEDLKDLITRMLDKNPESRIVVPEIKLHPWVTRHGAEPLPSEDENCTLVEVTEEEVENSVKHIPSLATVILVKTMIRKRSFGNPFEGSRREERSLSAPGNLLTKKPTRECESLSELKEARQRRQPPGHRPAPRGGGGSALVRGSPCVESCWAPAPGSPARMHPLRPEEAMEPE
Summary of the method: as §1

[5] = target: PFTK1 (Homo sapiens, UniProt O94921); details: PFTK1, 1 μM; read-out: % control
PFTK1, sequence (O94921 whole entry): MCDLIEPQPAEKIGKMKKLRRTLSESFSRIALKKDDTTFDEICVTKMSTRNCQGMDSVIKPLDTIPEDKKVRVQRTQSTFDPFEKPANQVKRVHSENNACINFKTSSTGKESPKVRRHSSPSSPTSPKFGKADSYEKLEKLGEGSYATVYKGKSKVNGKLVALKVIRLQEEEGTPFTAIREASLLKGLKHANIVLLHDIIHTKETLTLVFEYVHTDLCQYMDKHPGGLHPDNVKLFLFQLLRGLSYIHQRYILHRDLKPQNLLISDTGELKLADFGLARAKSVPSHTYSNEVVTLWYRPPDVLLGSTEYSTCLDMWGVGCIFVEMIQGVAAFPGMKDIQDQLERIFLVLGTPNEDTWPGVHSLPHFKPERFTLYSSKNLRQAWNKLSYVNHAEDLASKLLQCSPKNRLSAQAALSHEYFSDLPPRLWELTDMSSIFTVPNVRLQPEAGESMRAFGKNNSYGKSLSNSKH
Summary of the method: as §1

[6] = target: T1, ULK3 (Homo sapiens, UniProt Q6PHR2); details: ULK3, 1 μM; read-out: % control
T1 sequence (Q6PHR2 1-472): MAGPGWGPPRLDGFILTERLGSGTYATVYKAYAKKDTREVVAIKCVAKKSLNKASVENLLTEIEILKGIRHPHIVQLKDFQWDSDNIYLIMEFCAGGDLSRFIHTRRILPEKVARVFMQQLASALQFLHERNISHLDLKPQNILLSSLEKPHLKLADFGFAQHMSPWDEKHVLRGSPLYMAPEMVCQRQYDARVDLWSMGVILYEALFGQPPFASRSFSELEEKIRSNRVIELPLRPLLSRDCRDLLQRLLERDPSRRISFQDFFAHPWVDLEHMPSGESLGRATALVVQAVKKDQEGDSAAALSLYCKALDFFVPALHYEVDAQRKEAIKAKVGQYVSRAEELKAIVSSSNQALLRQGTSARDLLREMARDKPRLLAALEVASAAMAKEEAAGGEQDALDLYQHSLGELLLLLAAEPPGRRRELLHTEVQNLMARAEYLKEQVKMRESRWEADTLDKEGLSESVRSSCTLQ
Summary of the method: as §1

[7] = target: T2, RPS6KA4(Kin.Dom.2-C-terminal) (Homo sapiens, UniProt O75676); details: read-out: % control
T2 construct: RPS6KA4(Kin.Dom.2-C-terminal)
T2 sequence (O75676 411-674 limits assumed): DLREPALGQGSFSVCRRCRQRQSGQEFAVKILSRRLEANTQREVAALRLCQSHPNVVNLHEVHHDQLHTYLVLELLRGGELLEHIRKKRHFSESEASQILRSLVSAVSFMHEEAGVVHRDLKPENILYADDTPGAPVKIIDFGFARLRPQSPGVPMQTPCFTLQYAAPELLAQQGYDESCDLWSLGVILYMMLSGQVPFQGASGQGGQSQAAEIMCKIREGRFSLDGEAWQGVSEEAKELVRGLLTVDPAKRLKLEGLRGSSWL
Summary of the method: as §1

[8] = target: CDK4-cyclinD3 (Homo sapiens, UniProt P11802); details: CDK4-cyclinD3, 1 μM; read-out: % control
CDK4-cyclinD3, sequence (P11802 whole entry): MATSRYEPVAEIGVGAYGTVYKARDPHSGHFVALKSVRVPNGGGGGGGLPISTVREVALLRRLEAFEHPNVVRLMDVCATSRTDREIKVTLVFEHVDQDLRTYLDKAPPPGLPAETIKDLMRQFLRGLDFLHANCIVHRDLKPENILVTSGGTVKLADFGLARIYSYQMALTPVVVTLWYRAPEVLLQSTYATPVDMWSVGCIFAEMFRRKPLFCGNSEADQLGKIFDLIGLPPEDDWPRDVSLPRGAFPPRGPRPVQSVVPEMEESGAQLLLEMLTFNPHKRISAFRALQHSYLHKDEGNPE
CDK4-cyclinD3, sequence (P30281 whole entry partner): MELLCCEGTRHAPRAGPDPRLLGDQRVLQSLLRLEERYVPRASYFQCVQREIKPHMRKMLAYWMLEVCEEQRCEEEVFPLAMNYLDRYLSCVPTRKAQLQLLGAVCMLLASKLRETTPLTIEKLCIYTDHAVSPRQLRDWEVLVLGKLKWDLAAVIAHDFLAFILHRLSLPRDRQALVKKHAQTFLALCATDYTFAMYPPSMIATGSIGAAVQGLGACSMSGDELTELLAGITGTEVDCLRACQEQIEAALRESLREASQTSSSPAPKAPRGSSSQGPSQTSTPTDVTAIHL
Summary of the method: as §1

[9] = target: T3, HASPIN (Homo sapiens, UniProt Q8TF76); details: read-out: % control
T3 sequence (Q8TF76 1-798): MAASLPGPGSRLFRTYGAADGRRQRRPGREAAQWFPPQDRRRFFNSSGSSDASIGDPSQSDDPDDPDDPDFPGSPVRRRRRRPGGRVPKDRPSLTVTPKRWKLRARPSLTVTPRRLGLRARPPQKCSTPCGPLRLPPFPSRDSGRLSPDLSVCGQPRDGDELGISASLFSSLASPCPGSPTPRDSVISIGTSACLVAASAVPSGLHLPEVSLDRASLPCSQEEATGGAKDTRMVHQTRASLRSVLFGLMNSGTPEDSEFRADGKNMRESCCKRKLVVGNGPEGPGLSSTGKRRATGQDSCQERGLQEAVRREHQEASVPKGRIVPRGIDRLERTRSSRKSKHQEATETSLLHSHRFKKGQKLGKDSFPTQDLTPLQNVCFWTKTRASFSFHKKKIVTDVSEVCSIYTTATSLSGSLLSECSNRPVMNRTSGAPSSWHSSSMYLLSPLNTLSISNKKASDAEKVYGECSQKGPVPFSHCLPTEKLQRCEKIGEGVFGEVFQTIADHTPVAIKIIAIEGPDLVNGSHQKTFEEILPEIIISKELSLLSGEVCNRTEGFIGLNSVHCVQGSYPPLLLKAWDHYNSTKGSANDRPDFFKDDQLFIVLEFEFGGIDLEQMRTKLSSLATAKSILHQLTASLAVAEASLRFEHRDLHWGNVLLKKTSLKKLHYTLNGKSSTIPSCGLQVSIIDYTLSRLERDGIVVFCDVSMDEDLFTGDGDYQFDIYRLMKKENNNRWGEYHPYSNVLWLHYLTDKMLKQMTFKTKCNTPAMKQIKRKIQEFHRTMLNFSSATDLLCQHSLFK
Summary of the method: as §1

[10] = target: T4, DYRK2 (Homo sapiens, UniProt Q92630); details: DYRK2, 1 μM; read-out: % control
T4 sequence (Q92630 1-601): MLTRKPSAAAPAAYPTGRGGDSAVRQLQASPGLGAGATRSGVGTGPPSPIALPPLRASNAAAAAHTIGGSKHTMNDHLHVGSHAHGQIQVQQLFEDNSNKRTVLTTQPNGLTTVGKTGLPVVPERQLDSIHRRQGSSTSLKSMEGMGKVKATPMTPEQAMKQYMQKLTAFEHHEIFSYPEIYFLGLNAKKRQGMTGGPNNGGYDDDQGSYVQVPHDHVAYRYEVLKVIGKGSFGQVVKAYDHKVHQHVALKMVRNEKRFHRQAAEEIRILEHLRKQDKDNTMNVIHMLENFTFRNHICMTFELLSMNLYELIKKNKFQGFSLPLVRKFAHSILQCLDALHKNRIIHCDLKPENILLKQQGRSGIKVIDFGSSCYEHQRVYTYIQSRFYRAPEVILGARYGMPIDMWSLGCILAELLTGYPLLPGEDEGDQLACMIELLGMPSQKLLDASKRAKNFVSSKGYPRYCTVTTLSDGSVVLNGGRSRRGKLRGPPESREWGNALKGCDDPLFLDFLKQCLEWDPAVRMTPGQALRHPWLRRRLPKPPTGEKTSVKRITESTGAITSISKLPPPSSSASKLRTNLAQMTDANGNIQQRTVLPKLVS
Summary of the method: as §1

ERK5, sequence (Q13164 whole entry): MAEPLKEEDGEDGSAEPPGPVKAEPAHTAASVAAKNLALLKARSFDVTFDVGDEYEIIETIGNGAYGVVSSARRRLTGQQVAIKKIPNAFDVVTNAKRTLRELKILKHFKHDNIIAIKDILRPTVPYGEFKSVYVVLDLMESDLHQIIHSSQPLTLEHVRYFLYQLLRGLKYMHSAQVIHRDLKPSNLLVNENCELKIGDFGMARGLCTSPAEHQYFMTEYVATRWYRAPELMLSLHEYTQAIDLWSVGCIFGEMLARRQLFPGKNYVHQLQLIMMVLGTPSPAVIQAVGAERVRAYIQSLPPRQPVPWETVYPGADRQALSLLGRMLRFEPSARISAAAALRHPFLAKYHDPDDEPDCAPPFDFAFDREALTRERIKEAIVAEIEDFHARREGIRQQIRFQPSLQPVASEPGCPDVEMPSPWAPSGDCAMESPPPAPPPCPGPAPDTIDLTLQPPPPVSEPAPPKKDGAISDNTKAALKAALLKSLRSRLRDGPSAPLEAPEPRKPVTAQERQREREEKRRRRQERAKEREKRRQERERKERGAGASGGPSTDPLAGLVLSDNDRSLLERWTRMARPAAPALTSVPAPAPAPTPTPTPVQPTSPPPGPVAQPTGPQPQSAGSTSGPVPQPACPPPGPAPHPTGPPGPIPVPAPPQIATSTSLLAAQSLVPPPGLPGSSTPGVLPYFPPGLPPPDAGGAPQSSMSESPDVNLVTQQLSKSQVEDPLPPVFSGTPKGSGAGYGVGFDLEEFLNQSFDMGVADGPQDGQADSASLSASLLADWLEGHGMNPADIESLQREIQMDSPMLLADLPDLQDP

Row | SMILES | remaining binding at 1 µM [1] | remaining binding at 1 µM [2] | remaining binding at 1 µM [3] | remaining binding at 1 µM [4] | remaining binding at 1 µM [5] | remaining binding at 1 µM [6] | remaining binding at 1 µM [7] | remaining binding at 1 µM [8] | remaining binding at 1 µM [9] | remaining binding at 1 µM [10]
1 | CNc1c(-c2cnn([C@H]3CCN(C(C)=O)C[C@@H]3F)c2)cnc2[nH]cc(Cl)c12 [Compound 77, 1-((3S,4S)-4-(4-(3-chloro-4-(methylamino)-1H-pyrrolo[2,3-b]pyridin-5-yl)-1H-pyrazol-1-yl)-3-fluoropiperidin-1-yl)ethan-1-one] | 100% | 70% | 91% | 79% | 100% | 5.5% | 90% | 98% | 9.8% | 49%
2 | CNc1c(-c2ccc(C(=O)N3CCC(N4CCOCC4)CC3)cc2)cnc2[nH]cc(Cl)c12 [Compound 96, (4-(3-chloro-4-(methylamino)-1H-pyrrolo[2,3-b]pyridin-5-yl)phenyl)(4-morpholinopiperidin-1-yl)methanone] | 81% | 75% | 76% | 82% | 100% | 10% | 65% | 100% | 1.3% | 12%
3 | O=C(c1ccc(-c2cnc3[nH]cc(Cl)c3c2NC2CCCC2)cc1)N1CCC(N2CCOCC2)CC1 [Compound 101, (4-(3-chloro-4-(cyclopentylamino)-1H-pyrrolo[2,3-b]pyridin-5-yl)phenyl)(4-morpholinopiperidin-1-yl)methanone] | 100% | 86% | 45% | 88% | 100% | 92% | 99% | 99% | 22% | 100%
